From patent publication US20240390329A1, “APPLICATION OF CHANNEL BLOCKER IN PREPARATION OF DRUGS FOR TREATING AND/OR PREVENTING LIVER FIBROSIS” (Affiliated Hospital of Zunyi Medical University, priority 2023, published 2024)
pIC50: −log10 of the molar value. Entries after “also recorded” stand apart in the source; their conditions may differ.

Experiments:
[1] = test system: HSCs (α-SMA, LC3, p62 expression); assay: Western blotting of α-SMA, LC3 and p62 in HSCs stimulated with TGF-β1; format: cell-based; conditions: TGF-β1+PHT vs TGF-β1 alone; PHT sodium 200 μM; p<0.05
Method: Extraction of cell protein: the cells that need to be extracted protein are removed from the incubator, rinsed twice with the prepared PBS solution, placed on a clean filter paper, and the remaining PBS is dried. Then, a certain amount of radio immunoprecipitation assay (RIPA) protein lysis solution is added according to the growth of the cells, and the protein is lysed for about 30 minutes. Then, the lysed protein stock solution is scraped with a scraper, placed in prepared EP tubes, and then placed in a high-speed centrifuge and centrifuged at 12,000 rpm at 4° C. for 30 minutes. After centrifugation is completed, the supernatant is taken for subsequent protein quantification.

HSCs induced by TGF-β1 = assay: CCK-8 detection of the effect of PHT sodium on TGF-β1 induced proliferation of HSCs; format: cell-based; conditions: PHT sodium 200 μM, p<0.05
Method: The cells in good condition are digested, and then the cells are counted. After counting the concentration ratio, the corresponding volume of cell suspension and culture medium are taken to make the cell concentration required for the experiment. The cells are fully mixed and added to a 96-well plate. According to the experimental requirements, different interventions are given to the cells. After 48 hours, 10% CCK8 solution (the ratio between culture medium and CCK8 is 10:1) is added to each well. After 1-4 hours of incubation in the incubator, the absorbance is detected by a microplate reader.
The effect of TGF-β1 on the proliferation of HSCs is detected by the CCK8 method.

[2] = test system: carbon tetrachloride (CCl4) induced liver fibrosis; assay: Mouse model of liver fibrosis induced by CCl4, treatment group given PHT sodium
[3] = test system: hepatic stellate cells (HSCs); assay: CCK-8 detection of the effect of PHT sodium on proliferation of HSCs; format: cell-based; conditions: CCK-8, 48 hours; read-out: IC50 value on HSC proliferation
Method: 1) Cell recoveries are performed as follows. After irradiation with an ultraviolet lamp for 30 minutes on a super clean bench, white light and circulating air flow are turned on, a centrifuge tube is taken, and 3 mL of culture medium is added into the centrifuge tube. The frozen cells are quickly taken out of a refrigerator at −80° C. and put into a constant-temperature water bath at 37° C. to be thawed, and then the cells are sucked out from the super clean bench and put into the prepared centrifuge tube. After sealing, the cells are centrifuged in a centrifuge for 5 minutes (at a speed of 1000 rpm), then a culture flask is prepared, the name and date of the cells are marked, the supernatant is poured out after centrifugation, and a new culture medium is added to blow and mix. Finally, the mixed cells are added to the marked culture flask, and the flask is sprayed with 75% alcohol and placed in a constant temperature incubator for culture. 2) Cell passage is performed as follows. […] The cells in good condition are digested, and then the cells are counted. […] After 1-4 hours of incubation in the incubator, the absorbance is detected by a microplate reader.

[4] = Drug group: healthy mice given PHT sodium alone, compared with normal control group; format: in vivo, male C57 mice
[5] = treatment group vs model group, p<0.05
[6] = drug group vs normal control group

## O=C1NC(=O)C(c2ccccc2)(c2ccccc2)N1 [PHT sodium, phenytoin sodium]
[1]
  expression of autophagy substrate protein p62 in HSCs: significantly increased
  expression of autophagy-related protein LC3 in HSCs: significantly decreased
  expression of α-SMA in HSCs: significantly lower; also recorded: decreased
HSCs induced by TGF-β1
  proliferation of HSCs promoted by TGF-β1: inhibited
[2]; staining of liver sections
  collagen content in the liver of mice: reduce
[2]; treatment group vs model group
  liver texture (appearance of the liver, naked eye): softer than that of the model group
[2]; treatment group vs model group, PHT sodium 1 mM, 10 mL/kg i.p. once a day
  activity of the mice: significantly increased
[2]; treatment group vs model group, liver sections
  degree of liver fibrosis (HE, Masson's trichrome, picric-Sirius red staining): reduced
[2]; [5]
  expression of LC3 in liver tissue (Western blotting): decreased
  expression of p62 in liver tissue (Western blotting): increased
  expression of α-SMA in liver tissue (Western blotting): decreased
  positive expression of α-SMA in liver sections (immunohistochemistry): decreased compared with the model group
  transaminase (ALT, AST) in serum: lower than that in the model group
[3]
  pIC50: 3.63
[4]; drug group
  liver lobules (HE, Masson's trichrome, picric-Sirius red staining): intact and structurally normal
[4]; [6]
  appearance of the liver: no significant difference
  transaminase (ALT, AST) in serum: no significant difference
[4]; drug group, at edges of hepatic portal vein and central vein
  positive expression of α-SMA in liver sections (immunohistochemistry): only a small amount of positive expression
[4]; drug group, food and water intake normal
  general state of mice (fur, activity): smooth fur and active activity
